Source: patent US20150005281A1, “PYRIMIDINE-2,4-DIAMINE DERIVATIVES AS KINASE INHIBITORS” (Cellzome Limited, priority 2011, published 2015)

Assays:
Format in all cases: binding
JAK2 = biological target: T1, JAK2 (Homo sapiens, UniProt O60674); assay: Kinobeads assay with immunodetection, JAK2; conditions: mixed Molt4/Ramos lysate, read-out: Inhibition values (IC50) JAK2
T1 construct: endogenous in cells; host or cells: Molt4 (ATCC CRL-1582) and Ramos (ATCC CRL-1596) cells; mixed lysate 1:2
Protocol: (§1) Determination of the Effect of the Compounds According to the Invention on Janus Kinases (JAK Family) in Kinobeads™ Assays with Immunodetection of Kinases
(§2) The compounds of the present invention as described in the previous examples were tested in a Kinobeads™ assay as described for ZAP-70 (WO-A 2007/137867). Briefly, test compounds (at various concentrations) and the affinity matrix with the immobilized aminopyrido-pyrimidine ligand 24 were added to cell lysate aliquots and allowed to bind to the proteins in the lysate sample. After the incubation time the beads with captured proteins were separated from the lysate. Bound proteins were then eluted and the presence of JAK1, JAK2, JAK3 and TYK2 was detected and quantified using specific antibodies in a dot blot procedure and the Odyssey infrared detection system. Dose response curves for individual kinases were generated and IC50 values calculated. Kinobeads™ assays for ZAP-70 (WO-A 2007/137867) and for kinase selectivity profiling (WO-A 2006/134056) have been previously described.
(§3) The affinity matrix was washed two times with 15 mL of 1×DP buffer containing 0.2% NP40 (IGEPAL® CA-630, Sigma, #13021) and then resuspended in 1×DP buffer containing 0.2% NP40 (3% beads slurry).
(§4) 5×DP buffer: 250 mM Tris-HCl pH 7.4, 25% Glycerol, 7.5 mM MgCl2, 750 mM NaCl, 5 mM Na3VO4; filter the 5×DP buffer through a 0.22 μm filter and store in aliquots at −80° C. The 5×DP buffer is diluted with H2O to 1×DP buffer containing 1 mM DTT and 25 mM NaF.
(§5) Stock solutions of test compounds were prepared in DMSO. In a 96 well plate 30 μL solution of diluted test compounds at 5 mM in DMSO were prepared. Starting with this solution a 1:3 dilution series (9 steps) was prepared. For control experiments (no test compound) a buffer containing 2% DMSO was used.
(§6) Molt4 cells (ATCC catalogue number CRL-1582) and Ramos cells (ATCC catalogue number CRL-1596) were grown in 1 L Spinner flasks (Integra Biosciences, #182101) in suspension in RPMI 1640 medium (Invitrogen, #21875-034) supplemented with 10% Fetal Bovine Serum (Invitrogen) at a density between 0.15×10^6 and 1.2×10^6 cells/mL. Cells were harvested by centrifugation, washed once with 1×PBS buffer (Invitrogen, #14190-094) and cell pellets were frozen in liquid nitrogen and subsequently stored at −80° C. Cells were homogenized in a Potter S homogenizer in lysis buffer: 50 mM Tris-HCl, 0.8% NP40, 5% glycerol, 150 mM NaCl, 1.5 mM MgCl2, 25 mM NaF, 1 mM sodium vanadate, 1 mM DTT, pH 7.5. One complete EDTA-free tablet (protease inhibitor cocktail, Roche Diagnostics, 1873580) per 25 ml, buffer was added. The material was dounced 10 times using a mechanized POTTER S, transferred to 50 mL falcon tubes, incubated for 30 minutes on ice and spun down for 10 minutes at 20,000 g at 4° C. (10,000 rpm in Sorvall SLA600, precooled). The supernatant was transferred to an ultracentrifuge (UZ)-polycarbonate tube (Beckmann, 355654) and spun for 1 hour at 100.000 g at 4° C. (33.500 rpm in Ti50.2, precooled). The supernatant was transferred again to a fresh 50 mL falcon tube, the protein concentration was determined by a Bradford assay (BioRad) and samples containing 50 mg of protein per aliquot were prepared. The samples were immediately used for experiments or frozen in liquid nitrogen and stored frozen at −80° C.
(§7) Cell lysate (approximately 50 mg protein per plate) was thawed in a water bath at room temperature and then stored on ice. To the thawed cell lysate 1×DP 0.8% NP40 buffer containing protease inhibitors (1 tablet for 25 mL buffer; EDTA-free protease inhibitor cocktail; Roche Diagnostics 1873580) was added in order to reach a final protein concentration of 10 mg/mL total protein. The diluted cell lysate was stored on ice. Mixed Molt4/Ramos lysate was prepared by combining one volume of Molt4 lysate and two volumes of Ramos lysate (ratio 1:2). […]

TYK2 = biological target: T2, TYK2 (Homo sapiens, UniProt P29597); assay: Kinobeads assay with immunodetection, TYK2; conditions: for IC50: Kinobeads assay, mixed Molt4/Ramos lysate, read-out: Inhibition values (IC50) Tyk2
T2 construct: endogenous in cells; host or cells: Molt4 (ATCC CRL-1582) and Ramos (ATCC CRL-1596) cells; mixed lysate 1:2
T2 sequence (P29597 whole entry): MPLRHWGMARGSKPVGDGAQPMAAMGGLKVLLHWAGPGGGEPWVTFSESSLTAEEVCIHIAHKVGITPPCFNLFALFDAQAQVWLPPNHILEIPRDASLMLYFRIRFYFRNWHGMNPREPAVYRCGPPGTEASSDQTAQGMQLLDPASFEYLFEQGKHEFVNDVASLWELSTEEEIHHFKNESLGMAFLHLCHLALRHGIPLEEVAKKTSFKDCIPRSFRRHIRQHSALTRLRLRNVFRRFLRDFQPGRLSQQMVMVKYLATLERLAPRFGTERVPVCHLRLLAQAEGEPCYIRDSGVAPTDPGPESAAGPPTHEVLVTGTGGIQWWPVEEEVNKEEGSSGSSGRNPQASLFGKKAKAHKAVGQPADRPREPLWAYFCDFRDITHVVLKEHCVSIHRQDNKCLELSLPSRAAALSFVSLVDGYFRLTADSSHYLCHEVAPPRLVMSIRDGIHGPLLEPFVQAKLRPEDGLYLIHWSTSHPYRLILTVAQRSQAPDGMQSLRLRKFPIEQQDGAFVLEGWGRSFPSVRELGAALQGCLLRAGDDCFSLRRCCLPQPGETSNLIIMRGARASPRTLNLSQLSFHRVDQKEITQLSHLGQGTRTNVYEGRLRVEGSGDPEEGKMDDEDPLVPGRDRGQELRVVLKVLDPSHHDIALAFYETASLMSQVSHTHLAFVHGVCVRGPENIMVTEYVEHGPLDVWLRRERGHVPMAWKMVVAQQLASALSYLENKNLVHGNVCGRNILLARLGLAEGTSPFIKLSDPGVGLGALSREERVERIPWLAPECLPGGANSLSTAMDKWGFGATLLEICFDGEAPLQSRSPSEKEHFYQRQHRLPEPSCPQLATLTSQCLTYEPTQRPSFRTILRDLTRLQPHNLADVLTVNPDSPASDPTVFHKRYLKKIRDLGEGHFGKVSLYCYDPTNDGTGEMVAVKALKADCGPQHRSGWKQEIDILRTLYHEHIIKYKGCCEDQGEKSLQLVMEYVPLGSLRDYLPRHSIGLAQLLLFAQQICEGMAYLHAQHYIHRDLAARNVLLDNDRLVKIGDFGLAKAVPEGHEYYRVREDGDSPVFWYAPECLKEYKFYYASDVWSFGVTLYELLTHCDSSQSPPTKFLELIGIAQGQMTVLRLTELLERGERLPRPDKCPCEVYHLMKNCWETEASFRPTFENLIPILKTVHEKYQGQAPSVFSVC
Protocol: as §1, §2, §3, §4, §5, §6, §7

JAK1 = biological target: T3, JAK1 (Homo sapiens, UniProt P23458); assay: Kinobeads assay with immunodetection, JAK1; conditions: for IC50: Kinobeads assay, mixed Molt4/Ramos lysate, read-out: Inhibition values (IC50) JAK1
T3 construct: endogenous in cells; host or cells: Molt4 (ATCC CRL-1582) and Ramos (ATCC CRL-1596) cells; mixed lysate 1:2
T3 sequence (P23458 whole entry): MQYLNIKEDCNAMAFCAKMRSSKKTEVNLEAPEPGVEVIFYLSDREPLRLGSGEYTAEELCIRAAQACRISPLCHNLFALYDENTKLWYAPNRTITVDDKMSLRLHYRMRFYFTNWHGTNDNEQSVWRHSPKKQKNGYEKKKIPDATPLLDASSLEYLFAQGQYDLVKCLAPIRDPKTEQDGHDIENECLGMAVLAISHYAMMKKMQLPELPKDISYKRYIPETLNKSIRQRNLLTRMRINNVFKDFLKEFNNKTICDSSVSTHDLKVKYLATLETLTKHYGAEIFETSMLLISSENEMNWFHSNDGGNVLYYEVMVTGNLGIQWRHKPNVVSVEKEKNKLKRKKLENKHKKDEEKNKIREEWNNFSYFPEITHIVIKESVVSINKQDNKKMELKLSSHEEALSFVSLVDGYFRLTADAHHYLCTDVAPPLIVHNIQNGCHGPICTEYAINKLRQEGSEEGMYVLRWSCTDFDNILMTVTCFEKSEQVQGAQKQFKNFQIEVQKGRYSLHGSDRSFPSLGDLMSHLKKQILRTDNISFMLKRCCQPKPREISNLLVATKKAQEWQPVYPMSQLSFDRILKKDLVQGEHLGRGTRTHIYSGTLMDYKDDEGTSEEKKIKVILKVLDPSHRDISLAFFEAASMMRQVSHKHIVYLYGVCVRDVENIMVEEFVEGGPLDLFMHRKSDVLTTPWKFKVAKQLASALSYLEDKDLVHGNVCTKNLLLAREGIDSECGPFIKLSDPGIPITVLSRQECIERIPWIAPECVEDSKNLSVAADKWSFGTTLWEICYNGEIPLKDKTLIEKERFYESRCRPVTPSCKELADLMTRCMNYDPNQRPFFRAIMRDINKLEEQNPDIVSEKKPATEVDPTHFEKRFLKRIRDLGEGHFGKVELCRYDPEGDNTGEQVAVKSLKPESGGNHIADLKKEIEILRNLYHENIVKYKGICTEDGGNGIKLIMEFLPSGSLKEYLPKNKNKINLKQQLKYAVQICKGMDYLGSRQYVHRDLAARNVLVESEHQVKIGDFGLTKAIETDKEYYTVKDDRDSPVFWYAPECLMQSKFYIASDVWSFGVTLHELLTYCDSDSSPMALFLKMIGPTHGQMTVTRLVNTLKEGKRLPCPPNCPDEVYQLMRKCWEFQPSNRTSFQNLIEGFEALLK
Protocol: as §1, §2, §3, §4, §5, §6, §7

JAK3 = biological target: T4, JAK3 (Homo sapiens, UniProt P52333); assay: Kinobeads assay with immunodetection, JAK3; conditions: for IC50: Kinobeads assay, mixed Molt4/Ramos lysate, read-out: Inhibition values (IC50) JAK3
T4 construct: endogenous in cells; host or cells: Molt4 (ATCC CRL-1582) and Ramos (ATCC CRL-1596) cells; mixed lysate 1:2
T4 sequence (P52333 1-1124): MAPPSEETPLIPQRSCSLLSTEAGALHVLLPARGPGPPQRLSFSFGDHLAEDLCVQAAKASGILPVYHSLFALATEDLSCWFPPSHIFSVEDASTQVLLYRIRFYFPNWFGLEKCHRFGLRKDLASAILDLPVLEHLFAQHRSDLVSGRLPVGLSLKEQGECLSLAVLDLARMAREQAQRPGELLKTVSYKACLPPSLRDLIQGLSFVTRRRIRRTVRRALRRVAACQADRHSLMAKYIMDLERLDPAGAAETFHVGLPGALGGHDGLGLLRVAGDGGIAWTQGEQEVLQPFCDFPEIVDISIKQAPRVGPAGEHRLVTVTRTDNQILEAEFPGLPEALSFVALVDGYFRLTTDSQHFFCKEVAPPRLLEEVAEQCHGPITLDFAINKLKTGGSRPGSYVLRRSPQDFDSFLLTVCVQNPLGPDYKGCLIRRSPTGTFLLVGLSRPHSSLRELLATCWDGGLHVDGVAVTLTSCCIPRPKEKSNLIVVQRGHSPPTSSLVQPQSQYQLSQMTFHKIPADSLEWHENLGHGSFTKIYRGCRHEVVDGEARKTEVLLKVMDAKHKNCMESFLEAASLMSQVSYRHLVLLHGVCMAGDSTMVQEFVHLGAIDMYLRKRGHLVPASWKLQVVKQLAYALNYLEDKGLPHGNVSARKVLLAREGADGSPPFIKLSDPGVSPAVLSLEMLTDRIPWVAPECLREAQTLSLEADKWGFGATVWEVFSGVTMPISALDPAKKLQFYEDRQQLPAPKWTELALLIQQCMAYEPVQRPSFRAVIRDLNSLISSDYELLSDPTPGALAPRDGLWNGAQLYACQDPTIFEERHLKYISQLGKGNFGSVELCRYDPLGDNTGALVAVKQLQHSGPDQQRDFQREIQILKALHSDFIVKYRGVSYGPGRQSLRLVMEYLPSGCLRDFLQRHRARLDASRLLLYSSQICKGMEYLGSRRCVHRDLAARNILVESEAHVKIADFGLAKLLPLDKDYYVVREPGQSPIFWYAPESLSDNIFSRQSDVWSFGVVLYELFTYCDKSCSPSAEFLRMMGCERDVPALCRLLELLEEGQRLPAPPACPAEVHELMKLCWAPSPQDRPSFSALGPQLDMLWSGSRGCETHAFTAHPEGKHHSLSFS
Protocol: as §1, §2, §3, §4, §5, §6, §7

T1 sequence (O60674 whole entry): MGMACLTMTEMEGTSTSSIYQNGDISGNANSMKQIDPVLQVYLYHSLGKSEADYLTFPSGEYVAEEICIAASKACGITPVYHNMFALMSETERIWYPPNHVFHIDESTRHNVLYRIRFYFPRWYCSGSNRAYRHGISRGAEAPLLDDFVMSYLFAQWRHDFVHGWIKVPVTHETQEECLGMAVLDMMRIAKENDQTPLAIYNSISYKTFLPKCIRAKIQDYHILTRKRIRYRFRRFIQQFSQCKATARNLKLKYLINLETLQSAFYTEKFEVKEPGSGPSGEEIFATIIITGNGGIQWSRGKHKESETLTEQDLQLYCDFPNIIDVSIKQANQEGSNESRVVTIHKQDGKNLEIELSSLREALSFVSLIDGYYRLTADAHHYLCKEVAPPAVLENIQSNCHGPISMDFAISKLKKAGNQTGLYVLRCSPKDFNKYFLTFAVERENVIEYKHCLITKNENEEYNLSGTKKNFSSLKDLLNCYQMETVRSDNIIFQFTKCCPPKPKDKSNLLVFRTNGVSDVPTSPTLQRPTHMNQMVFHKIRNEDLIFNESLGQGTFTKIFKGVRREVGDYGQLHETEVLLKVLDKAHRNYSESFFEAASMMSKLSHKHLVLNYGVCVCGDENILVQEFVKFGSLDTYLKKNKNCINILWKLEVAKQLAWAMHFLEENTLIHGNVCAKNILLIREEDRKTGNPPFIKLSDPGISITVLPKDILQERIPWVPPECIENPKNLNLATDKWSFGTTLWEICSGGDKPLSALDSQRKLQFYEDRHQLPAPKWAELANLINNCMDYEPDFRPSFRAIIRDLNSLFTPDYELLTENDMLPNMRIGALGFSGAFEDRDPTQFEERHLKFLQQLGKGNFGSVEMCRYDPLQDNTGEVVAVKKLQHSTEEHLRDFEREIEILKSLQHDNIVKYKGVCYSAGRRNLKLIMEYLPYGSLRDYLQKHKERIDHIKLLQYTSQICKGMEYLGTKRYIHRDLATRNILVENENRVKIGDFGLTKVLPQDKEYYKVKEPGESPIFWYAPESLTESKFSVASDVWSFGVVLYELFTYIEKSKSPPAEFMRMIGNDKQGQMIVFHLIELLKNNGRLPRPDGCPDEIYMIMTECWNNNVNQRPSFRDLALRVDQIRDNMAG

Structure (SMILES) | IC50 (JAK2) | IC50 (TYK2) | Selectivity ratio over JAK2, JAK1 (JAK1) | IC50 (JAK1) | IC50 (JAK3) | Selectivity ratio over JAK2, Tyk2 (TYK2) | Selectivity ratio over JAK2, JAK3 (JAK3; JAK3 over JAK2)
OCCn1cc(Nc2ncc(Cl)c(NCC3CCNC3)n2)cn1 (stereo in doubt) [Example 79, (R)-2-(4-((5-chloro-4-((pyrrolidin-3-ylmethyl)amino)pyrimidin-2-yl)amino)-1H-pyrazol-1-yl)ethanol] | < 100 nM | 100 to 1000 nM | JAK1 = 39 | 100 to 1000 nM | 1000 to 10000 nM | – | –
C=CC(=O)N1CCC[C@@H]1CNc1nc(Nc2cnn(CCO)c2)ncc1Cl [Example 4, (R)-1-(2-(((5-chloro-2-((1-(2-hydroxyethyl)-1H-pyrazol-4-yl)amino)pyrimidin-4-yl)amino)methyl)pyrrolidin-1-yl)prop-2-en-1-one] | 100 to 1000 nM | < 100 nM | – | < 100 nM | 100 to 1000 nM | Tyk2 = 8 | –
C=CS(=O)(=O)N1CCC[C@@H]1CNc1nc(Nc2cnn(C)c2)ncc1Cl [Example 7, (R)-5-chloro-N^2-(1-methyl-1H-pyrazol-4-yl)-N^4-((1-(vinylsulfonyl)pyrrolidin-2-yl)methyl)pyrimidine-2,4-diamine] | 1000 to 10000 nM | 100 to 1000 nM | – | 100 to 1000 nM | < 100 nM | – | JAK3 = 100
CC(=O)N1CCC[C@H]1CNc1nc(Nc2cnn(CCO)c2)ncc1Cl [Example 9, (S)-1-(2-(((5-chloro-2-((1-(2-hydroxyethyl)-1H-pyrazol-4-yl)amino)pyrimidin-4-yl)amino)methyl)pyrrolidin-1-yl)ethanone] | 1000 to 10000 nM | 100 to 1000 nM | JAK1 = 25 | 100 to 1000 nM | 100 to 1000 nM | – | –
C=CC(=O)N1CCC[C@H]1CNc1nc(Nc2cnn(CCO)c2)ncc1Cl [Example 11, (S)-1-(2-(((5-chloro-2-((1-(2-hydroxyethyl)-1H-pyrazol-4-yl)amino)pyrimidin-4-yl)amino)methyl)pyrrolidin-1-yl)prop-2-en-1-one] | > 10000 nM | 100 to 1000 nM | – | 100 to 1000 nM | 1000 to 10000 nM | – | –
Cn1cc(Nc2ncc(Cl)c(NC[C@@H]3CCCN3S(C)(=O)=O)n2)cn1 [Example 12, (S)-5-chloro-N^2-(1-methyl-1H-pyrazol-4-yl)-N^4-((1-(methylsulfonyl)pyrrolidin-2-yl)methyl)pyrimidine-2,4-diamine] | 100 to 1000 nM | < 100 nM | JAK1 = 12 | < 100 nM | < 100 nM | – | –

Now from value to compound:

IC50 (JAK2) | IC50 (TYK2) | Selectivity ratio over JAK2, JAK1 (JAK1) | IC50 (JAK1) | IC50 (JAK3) | Selectivity ratio over JAK2, Tyk2 (TYK2) | Selectivity ratio over JAK2, JAK3 (JAK3; JAK3 over JAK2) | Structure (SMILES)
1000 to 10000 nM | < 100 nM | JAK1 = 8 | 100 to 1000 nM | < 100 nM | – | – | CC(=O)N1CCC[C@@H]1CNc1nc(Nc2cnn(C)c2)ncc1Cl [Example 1, (R)-1-(2-(((5-chloro-2-((1-methyl-1H-pyrazol-4-yl)amino)pyrimidin-4-yl)amino)methyl)pyrrolidin-1-yl)ethanone]
100 to 1000 nM | < 100 nM | JAK1 = 6 | < 100 nM | < 100 nM | – | – | CC(=O)N1CCC[C@@H]1CNc1nc(Nc2cnn(CCO)c2)ncc1Cl [Example 2, (R)-1-(2-(((5-chloro-2-((1-(2-hydroxyethyl)-1H-pyrazol-4-yl)amino)pyrimidin-4-yl)amino)methyl)pyrrolidin-1-yl)ethanone]
1000 to 10000 nM | 100 to 1000 nM | – | 100 to 1000 nM | 100 to 1000 nM | Tyk2 = 10 | – | C=CC(=O)N1CCC[C@@H]1CNc1nc(Nc2cnn(C)c2)ncc1Cl [Example 3, (R)-1-(2-(((5-chloro-2-((1-methyl-1H-pyrazol-4-yl)amino)pyrimidin-4-yl)amino)methyl)pyrrolidin-1-yl)prop-2-en-1-one]
100 to 1000 nM | < 100 nM | JAK1 = 13 | < 100 nM | < 100 nM | – | – | Cn1cc(Nc2ncc(Cl)c(NC[C@H]3CCCN3S(C)(=O)=O)n2)cn1 [Example 5, (R)-5-chloro-N^2-(1-methyl-1H-pyrazol-4-yl)-N^4-((1-(methylsulfonyl)pyrrolidin-2-yl)methyl)pyrimidine-2,4-diamine]
100 to 1000 nM | < 100 nM | – | < 100 nM | < 100 nM | Tyk2 = 11 | – | CS(=O)(=O)N1CCC[C@@H]1CNc1nc(Nc2cnn(CCO)c2)ncc1Cl [Example 6, (R)-2-(4-((5-chloro-4-(((1-(methylsulfonyl)pyrrolidin-2-yl)methyl)amino)pyrimidin-2-yl)amino)-1H-pyrazol-1-yl)ethanol]
1000 to 10000 nM | 100 to 1000 nM | JAK1 = 17 | 100 to 1000 nM | 100 to 1000 nM | – | – | CC(=O)N1CCC[C@H]1CNc1nc(Nc2cnn(C)c2)ncc1Cl [Example 8, (S)-1-(2-(((5-chloro-2-((1-methyl-1H-pyrazol-4-yl)amino)pyrimidin-4-yl)amino)methyl)pyrrolidin-1-yl)ethanone]
> 10000 nM | 1000 to 10000 nM | – | 1000 to 10000 nM | 1000 to 10000 nM | – | – | C=CC(=O)N1CCC[C@H]1CNc1nc(Nc2cnn(C)c2)ncc1Cl [Example 10, (S)-1-(2-(((5-chloro-2-((1-methyl-1H-pyrazol-4-yl)amino)pyrimidin-4-yl)amino)methyl)pyrrolidin-1-yl)prop-2-en-1-one]
